Results: patent US8754242B2, “Herbicides” (Syngenta Crop Protection LLC, priority 2007, dated 2014)

What was measured:
Assay type in all cases: in vivo
[1] = tested on: Alopecurus myosuroides (ALOMY); test: Test Example 1 pre-emergence herbicidal activity; conditions: rate 250 g/ha, evaluated 20 days later; for pest or weed control at 250 g/ha: Alopecurus myosuroides, 480 h, read-out: Pre-emergence activity ALOMY (100=total damage to plant; 0=no damage to plant)
How it was run: (§1)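 Once sown in standard soil, pots received an aqueous spray of the formulated active ingredient, either after one day or after ten days of controlled glasshouse growth. Plants then grew under optimum greenhouse conditions. Herbicidal effect was assessed visually 15 (post-emergence) or 20 (pre-emergence) days later, 100 meaning total plant damage.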

Avena fatua (AVEFA) [2] = test: Test Example 1 pre-emergence herbicidal activity; conditions: rate 250 g/ha, evaluated 20 days later; for pest or weed control at 250 g/ha: Avena fatua, 480 h, read-out: Pre-emergence activity AVEFA (100=total damage to plant; 0=no damage to plant)
How it was run: as §1

[3] = tested on: Digitaria sanguinalis (DIGSA); test: Test Example 1 pre-emergence herbicidal activity; conditions: Digitaria sanguinalis, 480 h, rate 250 g/ha, evaluated 20 days later, read-out: Pre-emergence activity DIGSA (100=total damage to plant; 0=no damage to plant)
How it was run: as §1

[4] = tested on: Echinochloa crus-galli (ECHCG); test: Test Example 1 pre-emergence herbicidal activity; conditions: Echinochloa crus-galli, 480 h, rate 250 g/ha, evaluated 20 days later, read-out: Pre-emergence activity ECHCG (100=total damage to plant; 0=no damage to plant)
How it was run: as §1

Lolium perenne (LOLPE) [5] = test: Test Example 1 pre-emergence herbicidal activity; conditions: Lolium perenne, 480 h, rate 250 g/ha, evaluated 20 days later, read-out: Pre-emergence activity LOLPE (100=total damage to plant; 0=no damage to plant)
How it was run: as §1

Setaria faberi (SETFA) [6] = test: Test Example 1 pre-emergence herbicidal activity; conditions: Setaria faberi, 480 h, rate 250 g/ha, evaluated 20 days later, read-out: Pre-emergence activity SETFA (100=total damage to plant; 0=no damage to plant)
How it was run: as §1

[7] = tested on: Alopecurus myosuroides (ALOMY); test: Test Example 1 post-emergence herbicidal activity; conditions: 360 h, rate 125 g/ha, evaluated 15 days later, read-out: Post-emergence activity ALOMY (100=total damage to plant; 0=no damage to plant)
How it was run: as §1

Avena fatua (AVEFA) [8] = test: Test Example 1 post-emergence herbicidal activity; conditions: 360 h, rate 125 g/ha, evaluated 15 days later, read-out: Post-emergence activity AVEFA (100=total damage to plant; 0=no damage to plant)
How it was run: as §1

[9] = tested on: Digitaria sanguinalis (DIGSA); test: Test Example 1 post-emergence herbicidal activity; conditions: 360 h, rate 125 g/ha, evaluated 15 days later, read-out: Post-emergence activity DIGSA (100=total damage to plant; 0=no damage to plant)
How it was run: as §1

[10] = tested on: Echinochloa crus-galli (ECHCG); test: Test Example 1 post-emergence herbicidal activity; conditions: 360 h, rate 125 g/ha, evaluated 15 days later, read-out: Post-emergence activity ECHCG (100=total damage to plant; 0=no damage to plant)
How it was run: as §1

Lolium perenne (LOLPE) [11] = test: Test Example 1 post-emergence herbicidal activity; conditions: 360 h, rate 125 g/ha, evaluated 15 days later, read-out: Post-emergence activity LOLPE (100=total damage to plant; 0=no damage to plant)
How it was run: as §1

Setaria faberi (SETFA) [12] = test: Test Example 1 post-emergence herbicidal activity; conditions: 360 h, rate 125 g/ha, evaluated 15 days later, read-out: Post-emergence activity SETFA (100=total damage to plant; 0=no damage to plant)
How it was run: as §1

Structure (SMILES)	pest or weed control at 250 g/ha [1]	pest or weed control at 250 g/ha (Avena fatua (AVEFA) [2])	pest or weed control at 250 g/ha [3]	pest or weed control at 250 g/ha [4]	pest or weed control at 250 g/ha (Lolium perenne (LOLPE) [5])	pest or weed control at 250 g/ha (Setaria faberi (SETFA) [6])	pest or weed control at 125 g/ha [7]	pest or weed control at 125 g/ha (Avena fatua (AVEFA) [8])	pest or weed control at 125 g/ha [9]	pest or weed control at 125 g/ha [10]	pest or weed control at 125 g/ha (Lolium perenne (LOLPE) [11])	pest or weed control at 125 g/ha (Setaria faberi (SETFA) [12])	Pre-emergence activity ALOMY (100=total damage to plant; 0=no damage to plant) [1]	Pre-emergence activity AVEFA (100=total damage to plant; 0=no damage to plant) (Avena fatua (AVEFA) [2])
Cc1cc(C)c(C2=C(O)[C@@H]3[C@@H]4O[C@@H](C[C@H]4C)[C@@H]3C2=O)c(C)c1 [Example T65]	100%	90%	100%	100%	100%	90%	90%	90%	100%	100%	80%	100%		
Cc1cc(C)c(C2=C(OC(=O)C(C)C)[C@H]3[C@@H](C2=O)[C@@H]2CC[C@H]3O2)c(C)c1 [Example P10]	100%	100%	100%	100%	100%	80%	100%	90%	80%	100%	100%	80%		
CCc1ccc(Br)cc1C1=C(O)[C@H]2[C@@H](C1=O)[C@@H]1CC[C@H]2O1 [Example T134]	60%	20%	50%	20%	70%	0%	20%	20%	20%	70%	20%	50%		
CC[C@]12CC[C@H](O1)[C@@H]1C(=O)C(c3c(C)cc(C)cc3C)=C(O)[C@@H]12 [Example T52]	40%	30%	90%	100%	100%	90%	60%	70%	80%	100%	70%	80%		
CCc1cc(C)cc(CC)c1C1=C(O)[C@@H]2[C@@H]3O[C@@H](C[C@H]3c3cc(OC)c(OC)c(OC)c3)[C@@H]2C1=O (racemic) [Example T181]	40%	40%	90%	100%	80%	70%	90%	90%	80%	100%	80%	100%		
CCc1cc(C)cc(CC)c1C1=C(O)[C@@H]2[C@@H]3O[C@@H](C[C@H]3c3cc(F)cc(F)c3)[C@@H]2C1=O [Example T173]	90%	70%	70%	70%	100%	60%	100%	90%	70%	100%	90%	90%		
Cc1cc(C)c(C2=C(O)[C@H]3[C@@H](C2=O)[C@@H]2CC[C@@]3(CO)O2)c(C)c1 [Example T49]	80%	70%	10%	80%	100%	20%	80%	80%	70%	80%	70%	50%		
CCCCCCC(=O)OC1=C(c2c(CC)cc(C)cc2CC)C(=O)[C@@H]2[C@H]1[C@H]1CC[C@@H]2O1 (racemic) [Example P20]	100%	80%	100%	100%	100%	100%	100%	100%	80%	100%	100%	90%		
Cc1cc(C)c(C2=C(O)[C@H]3[C@@H](C2=O)[C@@H]2CC[C@@]3(C)O2)c(C)c1 (racemic) [Example T9]			100%	100%	100%	100%	80%	60%	100%	100%	70%	80%	70	40
Cc1cc(C)c(C2=C(O)[C@@H]3[C@@H]4O[C@@H](C[C@H]4c4ccc(C(F)(F)F)nc4)[C@@H]3C2=O)c(C)c1 (racemic) [Example T128]	70%	70%	100%	100%	90%	100%	80%	90%	100%	100%	80%	100%		
CCc1cc(C)cc(CC)c1C1=C(O)[C@@H]2[C@@H]3O[C@@H](C[C@H]3c3ccc(F)cc3F)[C@@H]2C1=O [Example T163]	70%	60%	90%	80%	90%	90%	80%	80%	70%	100%	80%	90%		
CCC(=O)OC[C@]12C=C[C@H](O1)[C@@H]1C(=O)C(c3c(C)cc(C)cc3C)=C(O)[C@@H]12 [Example T59]	10%	20%	50%	30%	30%	40%	50%	40%	80%	80%	0%	70%		
Cc1cc(C)c(C2=C(O)[C@@H]3[C@@H]4O[C@@H](C[C@H]4c4ccc(C(F)(F)F)cc4)[C@@H]3C2=O)c(C)c1 [Example T92]	20%	60%	70%	90%	30%	70%	100%	100%	100%	100%	50%	100%		
